According to ChEMBL document CHEMBL1201862, “PubChem BioAssay data set” (2004):
Calls of active or inactive are those of the source. Rule as the data show it, for most assays here: actives have a measured IC50 and inactives only a lower limit.

Tests used:
[1] = tested on: H9c2; test: cells; assay type: functional, cell-based; details: Rattus norvegicus, H9c2, Myocardium;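 also: confirmatory concentration-response retest of ultra-high-throughput screening hits for modulation of myocardial damage; cell death induced by hydrogen peroxide oxidative stress; compound pretreatment for 60 min then peroxide exposure for 2 h; potency is for protecting the cells against peroxide damage rather than for killing them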
[2] = molecular target: T1, Corticotropin-releasing factor receptor 2/Corticotropin-releasing factor-binding protein (Homo sapiens, UniProt P24387+Q13324); test: activators of CRF receptor 2 with binding protein – uHTS hits, confirmation (AID 602473); assay type: functional; details: read-out: EC50_Mean
T1 sequence (Q13324 whole entry): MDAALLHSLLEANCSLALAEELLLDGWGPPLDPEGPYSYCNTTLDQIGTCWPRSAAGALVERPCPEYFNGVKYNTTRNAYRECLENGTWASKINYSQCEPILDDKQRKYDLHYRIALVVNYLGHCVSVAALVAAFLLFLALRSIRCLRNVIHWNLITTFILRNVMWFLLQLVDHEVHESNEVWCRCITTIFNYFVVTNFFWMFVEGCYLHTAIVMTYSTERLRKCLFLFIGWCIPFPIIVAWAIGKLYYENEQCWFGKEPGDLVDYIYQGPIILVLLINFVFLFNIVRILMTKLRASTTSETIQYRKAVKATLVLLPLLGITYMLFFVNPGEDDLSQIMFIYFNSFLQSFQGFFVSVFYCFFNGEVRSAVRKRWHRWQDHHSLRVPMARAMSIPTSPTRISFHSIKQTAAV
T1 sequence (P24387 whole entry): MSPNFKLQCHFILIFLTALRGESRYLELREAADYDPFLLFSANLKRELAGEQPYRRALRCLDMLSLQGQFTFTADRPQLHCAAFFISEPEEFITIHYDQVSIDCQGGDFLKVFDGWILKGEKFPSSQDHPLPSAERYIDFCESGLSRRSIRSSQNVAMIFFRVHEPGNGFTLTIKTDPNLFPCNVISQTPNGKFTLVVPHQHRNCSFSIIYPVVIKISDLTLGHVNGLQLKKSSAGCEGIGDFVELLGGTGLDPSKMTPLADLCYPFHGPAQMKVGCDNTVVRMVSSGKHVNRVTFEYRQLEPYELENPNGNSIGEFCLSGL

[3] = molecular target: T2, Sentrin-specific protease 8 (Homo sapiens, UniProt Q96LD8); assay type: functional;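 also: luminescence read-out of SENP8 inhibition, dose-response confirmation following an ultra-high-throughput screen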
T2 sequence (Q96LD8 whole entry): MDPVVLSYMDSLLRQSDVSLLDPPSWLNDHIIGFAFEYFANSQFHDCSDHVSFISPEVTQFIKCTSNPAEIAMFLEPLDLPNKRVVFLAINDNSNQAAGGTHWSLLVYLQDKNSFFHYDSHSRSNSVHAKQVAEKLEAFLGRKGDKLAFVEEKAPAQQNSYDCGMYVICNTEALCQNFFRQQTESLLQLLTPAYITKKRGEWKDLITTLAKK

[4] = molecular target: T3, Sentrin-specific protease 7 (Homo sapiens, UniProt Q9BQF6); assay type: functional;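 also: Luminescence-based dose-response confirmation of ultra-high-throughput screening hits, measuring inhibition of SENP7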
T3 sequence (Q9BQF6 whole entry): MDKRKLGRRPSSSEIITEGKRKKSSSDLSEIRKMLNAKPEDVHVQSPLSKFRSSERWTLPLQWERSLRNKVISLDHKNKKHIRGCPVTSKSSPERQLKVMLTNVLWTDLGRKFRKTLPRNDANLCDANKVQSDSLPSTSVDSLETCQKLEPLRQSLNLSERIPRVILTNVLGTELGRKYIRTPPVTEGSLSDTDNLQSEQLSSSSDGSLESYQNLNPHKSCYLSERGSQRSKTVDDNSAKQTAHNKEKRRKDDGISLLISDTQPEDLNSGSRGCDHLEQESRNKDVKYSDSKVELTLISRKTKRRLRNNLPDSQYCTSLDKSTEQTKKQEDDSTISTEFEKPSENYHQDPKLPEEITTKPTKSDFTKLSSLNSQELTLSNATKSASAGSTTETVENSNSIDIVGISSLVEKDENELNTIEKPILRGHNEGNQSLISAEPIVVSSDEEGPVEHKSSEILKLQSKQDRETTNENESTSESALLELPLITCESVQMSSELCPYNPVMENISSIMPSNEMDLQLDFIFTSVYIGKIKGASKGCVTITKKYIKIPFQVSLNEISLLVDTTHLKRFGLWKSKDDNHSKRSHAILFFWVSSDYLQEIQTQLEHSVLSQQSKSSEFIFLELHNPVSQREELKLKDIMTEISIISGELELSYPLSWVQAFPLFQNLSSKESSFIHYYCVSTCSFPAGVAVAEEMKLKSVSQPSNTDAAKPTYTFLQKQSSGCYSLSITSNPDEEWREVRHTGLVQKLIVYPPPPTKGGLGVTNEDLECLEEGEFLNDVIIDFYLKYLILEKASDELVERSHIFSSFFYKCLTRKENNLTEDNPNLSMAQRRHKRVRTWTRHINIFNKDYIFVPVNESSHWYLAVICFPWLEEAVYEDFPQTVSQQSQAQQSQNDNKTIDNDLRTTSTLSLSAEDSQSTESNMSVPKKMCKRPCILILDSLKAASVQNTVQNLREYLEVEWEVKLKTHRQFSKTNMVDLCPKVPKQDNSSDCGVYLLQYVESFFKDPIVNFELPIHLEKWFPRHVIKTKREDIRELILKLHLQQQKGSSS

[5] = molecular target: T4, Sentrin-specific protease 6 (Homo sapiens, UniProt Q9GZR1); assay type: functional;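 also: Luminescence-based dose-response confirmatory assay of SENP6 inhibition, following up an ultra-high-throughput screen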
T4 sequence (Q9GZR1 whole entry): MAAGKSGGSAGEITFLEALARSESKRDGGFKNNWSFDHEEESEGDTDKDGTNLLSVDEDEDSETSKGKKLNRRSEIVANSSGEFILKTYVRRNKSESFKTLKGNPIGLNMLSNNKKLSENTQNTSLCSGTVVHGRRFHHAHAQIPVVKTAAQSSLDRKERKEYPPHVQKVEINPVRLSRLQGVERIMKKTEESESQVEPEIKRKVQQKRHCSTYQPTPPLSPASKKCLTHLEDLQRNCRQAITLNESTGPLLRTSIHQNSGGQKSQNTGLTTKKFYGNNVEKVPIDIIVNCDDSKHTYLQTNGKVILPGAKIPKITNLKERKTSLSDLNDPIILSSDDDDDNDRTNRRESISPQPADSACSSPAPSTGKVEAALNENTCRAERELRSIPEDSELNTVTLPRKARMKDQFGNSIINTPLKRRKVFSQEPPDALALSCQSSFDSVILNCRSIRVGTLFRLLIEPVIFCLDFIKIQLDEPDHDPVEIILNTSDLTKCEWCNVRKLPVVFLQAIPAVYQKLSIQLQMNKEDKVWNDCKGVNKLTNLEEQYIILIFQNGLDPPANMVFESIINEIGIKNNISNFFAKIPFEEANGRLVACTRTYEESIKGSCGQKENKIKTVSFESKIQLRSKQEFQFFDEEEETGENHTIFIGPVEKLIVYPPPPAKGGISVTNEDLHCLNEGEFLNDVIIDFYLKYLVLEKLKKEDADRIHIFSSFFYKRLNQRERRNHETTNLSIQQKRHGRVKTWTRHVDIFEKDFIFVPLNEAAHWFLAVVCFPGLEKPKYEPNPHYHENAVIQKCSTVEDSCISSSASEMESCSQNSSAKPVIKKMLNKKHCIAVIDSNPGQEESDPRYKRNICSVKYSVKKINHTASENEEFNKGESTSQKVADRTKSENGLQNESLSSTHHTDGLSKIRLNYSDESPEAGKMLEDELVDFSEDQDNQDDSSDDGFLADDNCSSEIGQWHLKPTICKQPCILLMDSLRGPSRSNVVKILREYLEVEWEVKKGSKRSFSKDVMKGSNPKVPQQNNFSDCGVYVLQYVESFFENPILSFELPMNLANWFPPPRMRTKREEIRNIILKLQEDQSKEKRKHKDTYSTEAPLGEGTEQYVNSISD

[6] = molecular target: T5, Caspase-3 (Homo sapiens, UniProt P42574); assay type: functional;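 also: Dose-response selectivity test against caspase-3 for candidate inhibitors of sentrin-specific proteases (SENPs)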
T5 sequence (P42574 whole entry): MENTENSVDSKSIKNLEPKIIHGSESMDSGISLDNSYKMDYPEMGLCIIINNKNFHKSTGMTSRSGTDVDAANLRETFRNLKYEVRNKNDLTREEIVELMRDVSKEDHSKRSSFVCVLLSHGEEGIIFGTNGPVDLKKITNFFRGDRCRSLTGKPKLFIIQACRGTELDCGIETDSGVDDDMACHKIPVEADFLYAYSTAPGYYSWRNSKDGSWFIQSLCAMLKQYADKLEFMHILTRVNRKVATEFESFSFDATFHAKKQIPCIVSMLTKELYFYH

[7] = molecular target: T6, Apoptotic protease-activating factor 1 (Homo sapiens, UniProt O14727); assay type: functional
T6 sequence (O14727 whole entry): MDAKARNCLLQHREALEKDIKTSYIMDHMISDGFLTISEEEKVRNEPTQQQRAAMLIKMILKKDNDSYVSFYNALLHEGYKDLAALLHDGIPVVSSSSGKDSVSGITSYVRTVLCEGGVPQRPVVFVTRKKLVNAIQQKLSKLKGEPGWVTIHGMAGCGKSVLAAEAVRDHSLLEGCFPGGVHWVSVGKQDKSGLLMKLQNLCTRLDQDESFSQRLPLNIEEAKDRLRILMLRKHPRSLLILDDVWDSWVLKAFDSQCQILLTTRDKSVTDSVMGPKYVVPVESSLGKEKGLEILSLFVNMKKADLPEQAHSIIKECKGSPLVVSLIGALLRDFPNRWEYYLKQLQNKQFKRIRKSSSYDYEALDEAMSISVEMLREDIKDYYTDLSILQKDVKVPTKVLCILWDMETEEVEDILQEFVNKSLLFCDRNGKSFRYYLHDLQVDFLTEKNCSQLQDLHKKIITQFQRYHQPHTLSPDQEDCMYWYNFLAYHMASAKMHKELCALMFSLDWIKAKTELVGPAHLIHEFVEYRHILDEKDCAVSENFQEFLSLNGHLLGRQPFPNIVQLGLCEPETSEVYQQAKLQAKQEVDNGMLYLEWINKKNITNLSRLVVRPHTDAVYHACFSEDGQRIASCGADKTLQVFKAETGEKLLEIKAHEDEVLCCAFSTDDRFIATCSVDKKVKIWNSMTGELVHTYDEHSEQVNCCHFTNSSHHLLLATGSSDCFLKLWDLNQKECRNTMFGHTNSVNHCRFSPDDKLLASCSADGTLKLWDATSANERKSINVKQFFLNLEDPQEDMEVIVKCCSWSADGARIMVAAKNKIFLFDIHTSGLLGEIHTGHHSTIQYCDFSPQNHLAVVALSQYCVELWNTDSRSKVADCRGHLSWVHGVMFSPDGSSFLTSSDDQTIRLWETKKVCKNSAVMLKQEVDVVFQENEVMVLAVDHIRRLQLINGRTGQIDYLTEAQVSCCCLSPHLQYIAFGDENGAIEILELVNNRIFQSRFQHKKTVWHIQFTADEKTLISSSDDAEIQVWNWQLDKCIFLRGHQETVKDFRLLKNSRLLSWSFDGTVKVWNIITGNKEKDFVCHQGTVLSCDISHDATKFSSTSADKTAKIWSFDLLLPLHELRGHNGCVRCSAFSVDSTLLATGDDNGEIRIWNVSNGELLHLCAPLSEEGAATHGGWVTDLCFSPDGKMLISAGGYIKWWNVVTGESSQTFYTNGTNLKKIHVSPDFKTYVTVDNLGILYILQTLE

[8] = molecular target: Heat shock protein HSP 90-alpha (Homo sapiens, UniProt P07900); assay type: functional, organism-based
[9] = molecular target: T7, Protein skinhead-1 (Caenorhabditis elegans, UniProt P34707); assay type: functional
T7 sequence (P34707 whole entry): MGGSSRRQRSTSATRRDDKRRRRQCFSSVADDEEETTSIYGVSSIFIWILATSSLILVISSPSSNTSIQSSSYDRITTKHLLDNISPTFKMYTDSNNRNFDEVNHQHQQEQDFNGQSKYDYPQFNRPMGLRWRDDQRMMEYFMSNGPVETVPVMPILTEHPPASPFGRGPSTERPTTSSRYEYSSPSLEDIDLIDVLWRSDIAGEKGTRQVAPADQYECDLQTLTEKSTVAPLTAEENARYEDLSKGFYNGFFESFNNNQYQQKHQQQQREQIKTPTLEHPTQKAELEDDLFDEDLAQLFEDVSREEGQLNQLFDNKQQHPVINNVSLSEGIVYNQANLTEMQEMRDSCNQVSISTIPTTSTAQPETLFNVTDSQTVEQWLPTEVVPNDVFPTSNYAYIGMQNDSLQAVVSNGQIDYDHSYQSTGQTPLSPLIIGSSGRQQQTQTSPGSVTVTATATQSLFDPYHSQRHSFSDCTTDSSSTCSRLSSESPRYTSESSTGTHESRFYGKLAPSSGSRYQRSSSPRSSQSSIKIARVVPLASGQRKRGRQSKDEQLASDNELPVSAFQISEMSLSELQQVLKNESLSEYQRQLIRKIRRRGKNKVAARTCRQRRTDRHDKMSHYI

| SMILES | IC50 [4] | IC50 [5] | IC50 [6] | IC50 [1] | IC50 [3] | other results |
| --- | --- | --- | --- | --- | --- | --- |
| CC(C)(C)/N=C/c1c(O)ccc2oc3c(c12)CCCC3 |  |  |  | > 79 µM (inactive) |  | EC50 [2]: > 53 µM (inactive) |
| O=C(c1cc(O)nc2ccccc12)N1CCN(S(=O)(=O)c2ccc3ccccc3c2)CC1 |  |  |  | > 79 µM (inactive) |  |  |
| NC(=O)COc1ccc2oc(=O)cc(-c3cc4ccccc4o3)c2c1 |  |  |  | > 79 µM (inactive) |  |  |
| CN(Cc1ccc(F)cc1)C(=O)CNC(=O)c1cccs1 |  |  |  |  |  | IC50 [7]: > 100 µM (inactive) |
| O=C(NCCN1CCN(c2ccccc2F)CC1)c1cccn2c(=O)c3ccccc3nc12 |  |  |  | > 79 µM (inactive) |  |  |

Continued, in another order:

| IC50 [4] | IC50 [5] | IC50 [6] | SMILES | IC50 [1] | IC50 [3] | other results |
| --- | --- | --- | --- | --- | --- | --- |
| 1.69 µM (active) | > 100 µM (inactive) | 15.8 µM (active) | COc1ccc(-c2cc3ccc(OC)cc3cn2)cc1 |  | > 100 µM (inactive) |  |
| 13 µM (active) | 11.5 µM (active) | 67.5 µM (active) | O=C1/C(=C\c2ccc(O)c(O)c2)SC(=S)N1Cc1ccccc1 |  | 10.7 µM (active) | AC50 [8]: 3.11 µM (active) |
| 3.22 µM (active) | 16.1 µM (active) | 7.83 µM (active) | CCCOc1ccc(C(=O)Nc2ccc(Cl)cn2)cc1 |  | 9.81 µM (active) | IC50 [9]: 100 µM (inactive) |
